Results on 34 compounds are retold here after patent US20060100245A1, “Substituted biphenyl-4-carboxylic acid arylamide analogues” (Neurogen Corporation, priority 2002, published 2006).

What is called Ki is a measure of affinity in units of concentration, obtained from inhibition or displacement.

The target of this test is T1, human capsaicin receptor (VR1) (Homo sapiens, UniProt Q8NER1).
T1 construct: transfected with the pBK-CMV expression construct encoding the full length human capsaicin receptor; expressed in transfected cells
T1 sequence (Q8NER1 whole entry): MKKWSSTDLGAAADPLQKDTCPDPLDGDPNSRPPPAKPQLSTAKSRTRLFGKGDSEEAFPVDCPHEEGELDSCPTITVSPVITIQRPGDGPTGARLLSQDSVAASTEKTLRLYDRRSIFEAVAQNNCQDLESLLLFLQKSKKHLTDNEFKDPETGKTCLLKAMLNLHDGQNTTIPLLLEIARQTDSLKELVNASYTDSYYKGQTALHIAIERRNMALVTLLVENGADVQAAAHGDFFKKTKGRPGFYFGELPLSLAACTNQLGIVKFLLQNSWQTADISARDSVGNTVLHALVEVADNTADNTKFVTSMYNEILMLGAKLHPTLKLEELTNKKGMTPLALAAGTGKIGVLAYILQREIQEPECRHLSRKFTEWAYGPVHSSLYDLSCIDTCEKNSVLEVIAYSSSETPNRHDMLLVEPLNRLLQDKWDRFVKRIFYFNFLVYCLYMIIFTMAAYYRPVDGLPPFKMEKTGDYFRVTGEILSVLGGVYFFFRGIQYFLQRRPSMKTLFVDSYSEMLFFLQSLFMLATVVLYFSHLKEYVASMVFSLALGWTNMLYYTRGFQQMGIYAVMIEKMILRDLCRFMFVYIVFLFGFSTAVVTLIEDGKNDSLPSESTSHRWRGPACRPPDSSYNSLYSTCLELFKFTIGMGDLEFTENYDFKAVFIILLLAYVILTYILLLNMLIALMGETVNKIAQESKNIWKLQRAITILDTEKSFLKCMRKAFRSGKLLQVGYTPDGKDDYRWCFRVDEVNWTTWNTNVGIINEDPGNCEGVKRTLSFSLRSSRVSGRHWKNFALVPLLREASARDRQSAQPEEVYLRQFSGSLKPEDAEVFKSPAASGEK
Description: Capsaicin receptor binding assay ([3H]RTX competition). The settings on record: read-out: Ki. From the text: This Example illustrates the preparation of VR1-transfected cells and membrane preparations for use in binding assays (Example 5) and functional assays (Example 6).
A cDNA encoding full length human capsaicin receptor (SEQ ID NO: 1, 2 or 3 of U.S. Pat. No. 6,482,611) was subcloned in the plasmid pBK-CMV (Stratagene, La Jolla, Calif.) for recombinant expression in mammalian cells.
Human embryonic kidney (HEK293) cells were transfected with the pBK-CMV expression construct encoding the full length human capsaicin receptor using standard methods. The transfected cells were selected for two weeks in media containing G418 ([…]) to obtain a pool of stably transfected cells. Independent clones were isolated from this pool by limiting dilution to obtain clonal stable cell lines for use in subsequent experiments.
For radioligand binding experiments, cells were seeded in T175 cell culture flasks in media without antibiotics and grown to approximately 90% confluency. The flasks were then washed with PBS and harvested in PBS containing 5 mM EDTA. The cells were pelleted by gentle centrifugation and stored at −80° C. until assayed.
Previously frozen cells were disrupted with the aid of a tissue homogenizer in ice-cold HEPES homogenization buffer (5mM KCl 5, 5.8 mM NaCl, 0.75 mM CaCl2, 2 mM MgCl2, 320 mM sucrose, and 10 mM HEPES pH 7.4). Tissue homogenates were first centrifuged for 10 minutes at 1000×g (4° C.) to remove the nuclear fraction and debris, and then the supernatant from the first centrifugation is further centrifuged for 30 minutes at 35,000×g (4° C.) to obtain a partially purified membrane fraction. Membranes were resuspended in the HEPES homogenization buffer prior to the assay. An aliquot of this membrane homogenate is used to determine protein concentration via the Bradford method (BIO-RAD Protein Assay Kit, #500-0001, BIO-RAD, Hercules, Calif.).
This Example illustrates a representative assay of capsaicin receptor binding that may be used to determine the binding affinity of compounds for the capsaicin (VR1) receptor.
Binding studies with [^3H] Resiniferatoxin (RTX) are carried out essentially as described by Szallasi and Blumberg (1992) J. Pharmacol. Exp. Ter. 262: 883-888. In this protocol, non-specific RTX binding is reduced by adding bovine alpha, acid glycoprotein (100 μg per tube) after the binding reaction has been terminated.
[^3H] RTX (37 Ci/mmol) is synthesized by and obtained from the Chemical Synthesis and Analysis Laboratory, National Cancer Institute-Frederick Cancer Research and Development Center, Frederick, Md. [^3H] RTX may also be obtained from commercial vendors (e.g., Amersham Pharmacia Biotech, Inc.; Piscataway, N.J.).
The membrane homogenate of Example 4 is centrifuged as before and resuspended to a protein concentration of 333 μg/ml in homogenization buffer. Binding assay mixtures are set up on ice and contain [^3H]JRTX (specific activity 2200 mCi/ml), 2 μl non-radioactive test compound, 0.25 mg/ml bovine serum albumin (Cohn fraction V), and 5×10^4−1×10^5 VR1-transfected cells. The final volume is adjusted to 500 μl (for competition binding assays) or 1,000 μl (for saturation binding assays) with the ice-cold HEPES homogenization buffer solution (pH 7.4) described above. Non-specific binding is defined as that occurring in the presence of 1 μM non-radioactive RTX (Alexis Corp.; San Diego, Calif.). For saturation binding, [^3H]RTX is added in the concentration range of […], using 1 to 2 dilutions. Typically 11 concentration points are collected per saturation binding curve.
Competition binding assays are performed in the presence of 60 pM [^3H]RTX and various concentrations of test compound. The binding reactions are initiated by transferring the assay mixtures into a 37° C. water bath and are terminated following a 60 minute incubation period by cooling the tubes on ice.
As to `Cc1cc(NC(=O)c2ccc(-c3ncccc3Cl)cc2)ccc1C(C)C` [Compound 26, 4-(3-Chloro-pyridin-2-yl)-N-(4-isopropyl-3-methyl-phenyl)-benzamide], the inhibition constant Ki is under 1000 nM.
The figure for `CC(C)c1ccc(NC(=O)c2ccc(-c3ncccc3Cl)cc2)cc1` [Compound 27, 4-(3-Chloro-pyridin-2-yl)-N-(4-isopropyl-phenyl)-benzamide] is under 1000 nM; for `O=C(Nc1ccc(C(F)(F)F)cn1)c1ccc(-c2ncccc2Cl)cc1` [Compound 28, 4-(3-Chloro-pyridin-2-yl)-N-(5-trifluoromethyl-pyridin-2-yl)-benzamide] it is under 1000 nM; for `CC(C)(O)c1ccc(NC(=O)c2ccc(-c3ncccc3Cl)cc2)cc1` [Compound 29, 4-(3-Chloro-pyridin-2-yl)-N-[4-(1-hydroxy-1-methyl-ethyl)-phenyl]-benzamide] it is under 1000 nM.
In the case of `CC(c1ccc(NC(=O)c2ccc(-c3ncccc3Cl)cc2)cc1)C(F)(F)F` (stereo not shown) [Compound 30, 4-(3-Chloro-pyridin-2-yl)-N-[4-(2,2,2-trifluoro-1-methyl-ethyl)-phenyl]-benzamide], the Ki was under 1000 nM.
The figure for `COCC(C)(C)c1ccc(NC(=O)c2ccc(-c3ncccc3Cl)cc2)cc1` [Compound 31, 4-(3-Chloro-pyridin-2-yl)-N-[4-(2-methoxy-1,1-dimethyl-ethyl)-phenyl]-benzamide] is under 1000 nM.
Under `CC(C)(C#N)c1ccc(NC(=O)c2ccc(-c3ncccc3Cl)cc2)cc1` [Compound 32, 4-(3-Chloro-pyridin-2-yl)-N-[4-(cyano-dimethyl-methyl)-phenyl]-benzamide] stands under 1000 nM.
The figure for `Cc1cc(NC(=O)c2ccc(-c3ncccc3F)cc2)ccc1C(C)C` [Compound 33, 4-(3-Fluoro-pyridin-2-yl)-N-(4-isopropyl-3-methyl-phenyl)-benzamide] is under 1000 nM.
For `CC(C)c1ccc(NC(=O)c2ccc(-c3ncccc3F)cc2)cc1` [Compound 34, 4-(3-Fluoro-pyridin-2-yl)-N-(4-isopropyl-phenyl)-benzamide], the inhibition constant (Ki) is under 1000 nM.
The figure for `O=C(Nc1ccc(C(F)(F)F)cc1)c1ccc(-c2ncccc2F)cc1` [Compound 35, 4-(3-Fluoro-pyridin-2-yl)-N-(4-trifluoromethyl-phenyl)-benzamide] is under 1000 nM; for `O=C(Nc1ccc(C(F)(F)F)cc1)c1ccc(-c2ncccc2[N+](=O)[O-])cc1` [Compound 36, 4-(3-Nitro-pyridin-2-yl)-N-(4-trifluoromethyl-phenyl)-benzamide] it is under 1000 nM; for `CCCCS(=O)(=O)Nc1cccnc1-c1ccc(C(=O)Nc2ccc(C(C)(C)C)cc2)cc1` [Compound 37, 4-[3-(Butane-1-sulfonylamino)-pyridin-2-yl]-N-(4-eert-butyl-phenyl)-benzamide] it is under 1000 nM.
Under `CCC(C)c1ccc(NC(=O)c2cnc(-c3ccccc3Cl)cn2)cc1` (stereo not shown) [Compound 38, 5-(2-Chloro-phenyl)-pyrazine-2-carboxylic acid (4-sec-butyl-phenyl)-amide] stands under 1000 nM; under `CC(C)(C)c1ccc(NC(=O)c2cnc(-c3ccccc3Cl)cn2)cc1` [Compound 39, 5-(2-Chloro-phenyl)-pyrazine-2-carboxylic acid (4-tert-butyl-phenyl)-amide], under 1000 nM.
The figure for `CC(C)(C)c1ccc(NC(=O)c2ccc(-c3ccccc3Cl)cn2)cc1` [Compound 40, 5-(2-Chloro-phenyl)-pyridine-2-carboxylic acid (4-tert-butyl-phenyl)-amide] is under 1000 nM; for `Cc1ccc(C)c(-c2ccc(C(=O)Nc3ccc(C(F)(F)F)cc3)cn2)c1` [Compound 56, 6-(2,5-Dimethyl-phenyl)-N-(4-trifluoromethyl-phenyl)-nicotinamide] it is under 1000 nM; for `CC(=O)c1ccccc1-c1ccc(C(=O)Nc2ccc(C(C)(C)C)cc2)cn1` [Compound 60, 6-(2-Acetyl-phenyl)-N-(4-tert-butyl-phenyl)-nicotinamide] it is under 1000 nM.
In the case of `CC(C)(C)c1ccc(NC(=O)c2ccc(-c3ccccc3N)nc2)cc1` [Compound 61, 6-(2-Amino-phenyl)-N-(4-tert-butyl-phenyl)-nicotinamide], the inhibition constant (Ki) is under 1000 nM.
The figure for `O=C(Nc1ccccc1C(F)(F)F)c1ccc(-c2ccccc2Cl)nc1` [Compound 64, 6-(2-Chloro-phenyl)-N-(2-trifluoromethyl-phenyl)-nicotinamide] is under 1000 nM; for `CCCc1ccc(NC(=O)c2ccc(-c3ccccc3Cl)nc2)cc1` [Compound 77, 6-(2-Chloro-phenyl)-N-(4-propyl-phenyl)-nicotinamide] it is under 1000 nM.
Under `O=C(Nc1ccc(C(F)(F)F)cc1)c1ccc(-c2ccccc2Cl)nc1` [Compound 78, 6-(2-Chloro-phenyl)-N-(4-trifluoromethyl-phenyl)-nicotinamide] stands under 1000 nM; under `O=C(Nc1ccccc1)c1ccc(-c2ccccc2Cl)nc1` [Compound 81, 6-(2-Chloro-phenyl)-N-phenyl-nicotinamide], under 1000 nM; under `O=C(Nc1cnc2ccccc2c1)c1ccc(-c2ccccc2Cl)nc1` [Compound 82, 6-(2-Chloro-phenyl)-N-quinolin-3-yl-nicotinamide], under 1000 nM.
Under `Cc1nc2cc(NC(=O)c3ccc(-c4ccccc4F)nc3)ccc2s1` [Compound 85, 6-(2-Fluoro-phenyl)-N-(2-methyl-benzothiazol-5-yl)-nicotinamide] stands under 1000 nM.
For the compound `COc1cccc(NC(=O)c2ccc(-c3ccccc3F)nc2)c1` [Compound 87, 6-(2-Fluoro-phenyl)-N-(3-methoxy-phenyl)-nicotinamide], the Ki is under 1000 nM.
Under `O=C(Nc1cccc(C(F)(F)F)c1)c1ccc(-c2ccccc2F)nc1` [Compound 88, 6-(2-Fluoro-phenyl)-N-(3-trifluoromethyl-phenyl)-nicotinamide] stands under 1000 nM; under `CC(C)c1ccc(NC(=O)c2ccc(-c3ccccc3F)nc2)cc1` [Compound 89, 6-(2-Fluoro-phenyl)-N-(4-isopropyl-phenyl)-nicotinamide], under 1000 nM; under `CCCc1ccc(NC(=O)c2ccc(-c3ccccc3F)nc2)cc1` [Compound 91, 6-(2-Fluoro-phenyl)-N-(4-propyl-phenyl)-nicotinamide], under 1000 nM.
Under `O=C(Nc1ccc(C(F)(F)F)cc1)c1ccc(-c2ccccc2F)nc1` [Compound 92, 6-(2-Fluoro-phenyl)-N-(4-trifluoromethyl-phenyl)-nicotinamide] stands under 1000 nM; under `O=C(Nc1ccc2c(c1)CCC2)c1ccc(-c2ccccc2F)nc1` [Compound 93, 6-(2-Fluoro-phenyl)-N-indan-5-yl-nicotinamide], under 1000 nM.
Under `COc1ccccc1-c1ccc(C(=O)Nc2ccc(C(F)(F)F)cc2)cn1` [Compound 99, 6-(2-Methoxy-phenyl)-N-(4-trifluoromethyl-phenyl)-nicotinamide] stands under 1000 nM; under `Cc1ccc(-c2ccc(C(=O)Nc3ccc4c(c3)CCC4)cn2)cc1C` [Compound 109, 6-(3,4-Dimethyl-phenyl)-N-indan-5-yl-nicotinamide], under 1000 nM; under `Cc1cc(C)cc(-c2ccc(C(=O)Nc3ccc(C)c(F)c3)cn2)c1` [Compound 110, 6-(3,5-Dimethyl-phenyl)-N-(3-fluoro-4-methyl-phenyl)-nicotinamide], under 1000 nM.
As for `O=C(Nc1ccc2c(c1)CCC2)c1ccc(-c2cccc(Cl)c2)nc1` [Compound 116, 6-(3-Chloro-phenyl)-N-indan-5-yl-nicotinamide], the inhibitory constant (Ki) is under 1000 nM.
